Source: patent US10472356B2, “Bicyclic ketone sulfonamide compounds” (AMGEN INC., priority 2015, dated 2019)

Key:
Assay type in all cases: cell-based
human Nav1.7 [1] = molecular target: T1, human Nav1.7 (Homo sapiens, UniProt Q15858); assay: Nav 1.7 In Vitro PatchXpress (PX) Assay; conditions: HEK 293 cells stably transfected with human Nav1.7; PatchXpress whole cell voltage clamp; partially inactivated state (holding potential yielding 20 to 50% inactivation); read-out: hNav1.7 PX IC50
T1 construct: expressed in transfected cells; host or cells: HEK293
T1 sequence (Q15858 whole entry): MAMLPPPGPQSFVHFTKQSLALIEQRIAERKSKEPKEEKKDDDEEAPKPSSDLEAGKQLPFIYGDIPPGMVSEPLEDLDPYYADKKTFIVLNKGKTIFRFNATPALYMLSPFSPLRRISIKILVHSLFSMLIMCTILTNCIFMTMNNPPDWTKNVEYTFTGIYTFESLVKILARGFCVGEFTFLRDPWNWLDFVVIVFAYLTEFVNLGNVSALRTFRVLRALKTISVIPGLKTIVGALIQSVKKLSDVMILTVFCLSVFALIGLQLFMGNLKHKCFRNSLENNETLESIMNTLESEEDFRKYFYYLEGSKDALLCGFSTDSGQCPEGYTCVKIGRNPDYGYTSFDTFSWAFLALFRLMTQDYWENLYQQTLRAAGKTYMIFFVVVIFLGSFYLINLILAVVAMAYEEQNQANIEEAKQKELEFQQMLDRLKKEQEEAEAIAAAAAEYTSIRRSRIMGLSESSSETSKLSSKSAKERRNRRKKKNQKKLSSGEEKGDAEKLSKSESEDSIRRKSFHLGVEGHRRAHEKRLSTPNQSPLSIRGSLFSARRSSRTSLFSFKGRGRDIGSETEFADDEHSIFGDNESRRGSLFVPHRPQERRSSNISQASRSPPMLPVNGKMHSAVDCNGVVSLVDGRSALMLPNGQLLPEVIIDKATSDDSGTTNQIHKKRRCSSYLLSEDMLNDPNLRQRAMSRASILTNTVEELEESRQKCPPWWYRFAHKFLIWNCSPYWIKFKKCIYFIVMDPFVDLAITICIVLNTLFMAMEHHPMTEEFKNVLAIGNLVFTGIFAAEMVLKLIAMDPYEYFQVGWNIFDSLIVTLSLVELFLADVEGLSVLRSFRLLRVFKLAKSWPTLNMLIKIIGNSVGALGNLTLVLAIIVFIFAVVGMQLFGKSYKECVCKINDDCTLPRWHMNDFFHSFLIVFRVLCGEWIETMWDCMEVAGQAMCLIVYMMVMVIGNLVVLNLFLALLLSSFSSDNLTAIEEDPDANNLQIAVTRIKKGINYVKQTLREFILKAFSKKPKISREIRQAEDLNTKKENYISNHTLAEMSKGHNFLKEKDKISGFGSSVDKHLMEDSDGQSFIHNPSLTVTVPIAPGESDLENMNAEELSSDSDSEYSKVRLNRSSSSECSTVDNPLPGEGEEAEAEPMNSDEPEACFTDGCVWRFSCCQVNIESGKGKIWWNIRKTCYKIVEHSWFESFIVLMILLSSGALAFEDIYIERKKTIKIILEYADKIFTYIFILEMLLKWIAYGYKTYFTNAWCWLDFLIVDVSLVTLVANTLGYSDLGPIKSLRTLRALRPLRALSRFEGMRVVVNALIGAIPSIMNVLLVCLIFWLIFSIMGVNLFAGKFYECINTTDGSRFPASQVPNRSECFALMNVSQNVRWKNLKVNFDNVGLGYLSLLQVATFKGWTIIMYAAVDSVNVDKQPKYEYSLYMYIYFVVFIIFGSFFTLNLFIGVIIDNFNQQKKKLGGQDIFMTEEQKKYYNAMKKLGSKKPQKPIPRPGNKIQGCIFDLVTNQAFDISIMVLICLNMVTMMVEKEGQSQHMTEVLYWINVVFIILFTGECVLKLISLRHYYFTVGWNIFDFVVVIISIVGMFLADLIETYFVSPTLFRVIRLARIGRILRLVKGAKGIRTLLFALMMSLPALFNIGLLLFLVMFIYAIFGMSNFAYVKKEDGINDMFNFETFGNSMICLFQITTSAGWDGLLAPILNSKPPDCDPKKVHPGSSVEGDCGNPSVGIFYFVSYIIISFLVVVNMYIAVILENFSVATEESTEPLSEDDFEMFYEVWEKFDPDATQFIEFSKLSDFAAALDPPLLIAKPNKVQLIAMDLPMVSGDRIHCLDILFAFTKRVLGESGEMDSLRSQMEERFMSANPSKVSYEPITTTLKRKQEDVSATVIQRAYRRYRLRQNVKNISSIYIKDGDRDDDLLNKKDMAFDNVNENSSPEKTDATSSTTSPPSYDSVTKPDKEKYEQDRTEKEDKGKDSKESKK
How it was run: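 Whole-cell voltage clamp on HEK 293 cells stably expressing human Nav1.7 (automated patch), holding potential giving 20–50% inactivation; 20 ms pulses to −10 mV at 0.1 Hz. Single compound concentration applied 3 min, peak current inhibition measured; IC50 fitted from 3–5 cells per concentration.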

human Nav1.7 [2] = molecular target: T1, human Nav1.7; assay: Nav 1.7 IWQ In Vitro Assay (IonWorks Quattro); conditions: HEK293 cells stably transfected with human Nav 1.7; IonWorks Quattro population patch-clamp; 26th pulse to −20 mV, 5 Hz; cells unclamped 5 to 8 minutes with compound; read-out: hNav1.7 IWQ IC50
Experimental: Nav 1.7 or Nav 1.5 IWQ In Vitro Assay
HEK293 cells stably transfected with either human Nav 1.7 or human Nav 1.5 were recorded in population patch-clamp mode with the IonWorks® Quattro automated electrophysiology system (Molecular Devices, LLC, Sunnyvale, Calif.). Cells were voltage clamped to −110 mV for three seconds (Nav 1.7) or half a second (Nav 1.5) and sodium currents were elicited by a train of 26 depolarizations of 150 msec duration to −20 mV (Nav 1.7) or 0 mV (Nav 1.5) at a frequency of 5 Hz. Cells were then left unclamped for a period of 5 to 8 minutes while a single concentration of test compound was added. Following this compound incubation period, cells were then reclamped to −110 mV for three seconds (Nav1.7) or half a second (Nav1.5) to recover unbound channels and put through the same 26 pulse voltage protocol as above. Peak inward current during the 26th pulse to −20 mV (Nav 1.7) or 0 mV (Nav 1.5) in the presence of compound was divided by the peak inward current evoked by the 26th pulse to −20 mV (Nav1.7) or 0 mV (Nav1.5) in the absence of compound to determine percent inhibition. Concentration-response curves of percent.

human Nav1.7 [3] = molecular target: T1, human Nav1.7; assay: Nav 1.7 IWB In Vitro Assay (IonWorks Barracuda); conditions: HEK293 cells stably transfected with human Nav 1.7; IonWorks Barracuda population patch-clamp; cells clamped to −20 mV for 4 minutes with compound; 26th pulse; read-out: hNav1.7 IWB IC50
How it was run: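 Population patch clamp of HEK293 cells stably expressing human Nav 1.7: 26 pulses to −20 mV (150 ms, 5 Hz) from −110 mV, then 4 min at −20 mV with compound, 3 s recovery at −110 mV and the train repeated. % inhibition of 26th-pulse peak current vs no compound; IC50 from concentration-response curves.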

Row | Structure (SMILES) | IC50 (human Nav1.7 [1]) [nM] | IC50 (human Nav1.7 [2]) [nM] | IC50 (human Nav1.7 [3]) [nM]
1 | COc1cc(-c2ccc(Cl)c(C)c2)c(F)cc1-n1c2c(ccc1=O)CN(S(=O)(=O)Nc1cccnn1)CC2 (racemic) [Example 33-(Rac), (Rac)-1-(4′-chloro-2-fluoro-5-methoxy-3′-methyl-4-biphenylyl)-2-oxo-N-3-pyridazinyl-1,5,7,8-tetrahydro-1,6-naphthyridine-6(2H)-sulfonamide] | 53.3 | 19.6 | 26.1
2 | COc1cc(C#CC2CCCC2)c(F)cc1-n1c2c(ccc1=O)CN(S(=O)(=O)Nc1ccon1)CC2 (racemic) [Example 34-(Rac), (Rac)-1-(4-(cyclopentylethynyl)-5-fluoro-2-methoxyphenyl)-N-3-isoxazolyl-2-oxo-1,5,7,8-tetrahydro-1,6-naphthyridine-6(2H)-sulfonamide] | 408 | 88.8 | 48.5
3 | COc1cc(-c2ccc(Cl)c(C#N)c2)c(F)cc1-n1c2c(ccc1=O)CN(S(=O)(=O)Nc1ccon1)CC2 (racemic) [Example 35, (Rac)-1-(4′-chloro-3′-cyano-2-fluoro-5-methoxy-4-biphenylyl)-N-3-isoxazolyl-2-oxo-1,5,7,8-tetrahydro-1,6-naphthyridine-6(2H)-sulfonamide] | 177 | 4 | 18
4 | COc1nc(-c2cc(F)cc(Cl)c2)c(F)cc1-n1c2c(ccc1=O)CN(S(=O)(=O)Nc1cccnn1)CC2 (racemic) [Example 37, (Rac)-1-(6-(3-chloro-5-fluorophenyl)-5-fluoro-2-methoxy-3-pyridinyl)-2-oxo-N-3-pyridazinyl-1,5,7,8-tetrahydro-1,6-naphthyridine-6(2H)-sulfonamide] | 1030 | 137 | 269
5 | COc1cc(-c2cc(F)cc(Cl)c2)c(F)cc1-n1c2c(ccc1=O)CN(S(=O)(=O)Nc1cccnn1)CC2 (racemic) [Example 38-(Rac), (Rac)-1-(3′-chloro-2,5′-difluoro-5-methoxy-4-biphenylyl)-2-oxo-N-3-pyridazinyl-1,5,7,8-tetrahydro-1,6-naphthyridine-6(2H)-sulfonamide] | 87.8 | 16.7 | 10.2
6 | COc1cc(-c2ccc(Cl)c(C)c2)c(F)cc1-n1c2c(ccc1=O)CN(S(=O)(=O)Nc1nccs1)CC2 (racemic) [Example 39, (Rac)-1-(4′-chloro-2-fluoro-5-methoxy-3′-methyl-4-biphenylyl)-2-oxo-N-1,3-thiazol-2-yl-1,5,7,8-tetrahydro-1,6-naphthyridine-6(2H)-sulfonamide] | 35.1 | 15.2 | 37.8
7 | COc1cc(-c2cc(OC)c(-n3c4c(ccc3=O)CN(S(=O)(=O)Nc3ccon3)CC4)cc2F)ccc1C (racemic) [Example 58-(Rac), (Rac)-1-(2-fluoro-3′,5-dimethoxy-4′-methyl-4-biphenylyl)-N-3-isoxazolyl-2-oxo-1,5,7,8-tetrahydro-1,6-naphthyridine-6(2H)-sulfonamide] | 78 | 12.3 | 24.1
8 | COc1cc(-c2cc(OC)c(-n3c4c(ccc3=O)CN(S(=O)(=O)Nc3cccnn3)CC4)cc2F)ccc1Cl (single isomer, unassigned) [Example 2-M, M-1-(4′-chloro-2-fluoro-3′,5-dimethoxy-4-biphenylyl)-2-oxo-N-3-pyridazinyl-1,5,7,8-tetrahydro-1,6-naphthyridine-6(2H)-sulfonamide] | 5530 | 255 | 132
9 | COc1cc(-c2cc(OC)c(-n3c4c(ccc3=O)CN(S(=O)(=O)Nc3cccnn3)CC4)cc2F)ccc1Cl (single isomer, unassigned) [Example 2-P, P-1-(4′-chloro-2-fluoro-3′,5-dimethoxy-4-biphenylyl)-2-oxo-N-3-pyridazinyl-1,5,7,8-tetrahydro-1,6-naphthyridine-6(2H)-sulfonamide] | 259 | < 19 | 6.6
10 | COc1cc(-c2cc(F)cc(F)c2)c(F)cc1-n1c2c(ccc1=O)[C@H](C)N(S(=O)(=O)Nc1ccon1)CC2 (single isomer, unassigned) [Example 3-B-P] | 2080 | 224 | 197
